{
  "source": "patent US8952024B2",
  "about": "“Herbicidal pyrimidone derivatives” (E I du Pont de Nemours and Company, priority 2009, dated 2015)",
  "data": [
    {"tested_on": "cocklebur (Xanthium strumarium)", "experiment": "Test B pre-/postemergence plant response", "assay_type": "in vivo", "conditions": "31 g ai/ha, postemergence; scale 0 to 100, 0 is no effect, 100 is complete control", "method_in_brief": "(§1)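 Plants treated either at seeding (loam/sand soil) or postemergence at 2 to 18 cm height, using a surfactant-containing non-phytotoxic solvent formulation. Evaluation was visual after 13 to 15 days, 0 to 100 scale relative to controls.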", "values": [
      {"compound": "CCCCn1c(-c2ccccc2)ncc(C(=O)C2=C(O)CCCC2=O)c1=O", "note": "[Compound 86]", "Plant response rating, Cocklebur": 85}
    ]},
    {"tested_on": "cocklebur (Xanthium strumarium)", "experiment": "Test B pre-/postemergence plant response", "assay_type": "in vivo", "conditions": "62 g ai/ha, postemergence; 0 is no effect, 100 is complete control; 13 to 15 days", "method_in_brief": "as §1", "values": [
      {"compound": "CCCCn1c(-c2ccccc2)ncc(C(=O)C2=C(O)CCCC2=O)c1=O", "note": "[Compound 86]", "Cocklebur plant response rating (0 to 100 scale)": 95}
    ]},
    {"tested_on": "cocklebur (Xanthium strumarium)", "experiment": "Test B pre-/postemergence plant response", "assay_type": "in vivo", "conditions": "Postemergence, 125 g ai/ha; visual rating after 13 to 15 days, scale 0 (no effect) to 100 (complete control)", "method_in_brief": "as §1", "values": [
      {"compound": "CCCCn1c(-c2ccccc2)ncc(C(=O)C2=C(O)CCCC2=O)c1=O", "note": "[Compound 86]", "Plant response rating, Cocklebur": 95}
    ]},
    {"tested_on": "cocklebur (Xanthium strumarium)", "experiment": "Test B pre-/postemergence plant response", "assay_type": "in vivo", "conditions": "Postemergence, 250 g ai/ha; scale 0 to 100 (0 no effect, 100 complete control)", "method_in_brief": "as §1", "values": [
      {"compound": "CCCCn1c(-c2ccccc2)ncc(C(=O)C2=C(O)CCCC2=O)c1=O", "note": "[Compound 86]", "Plant response rating, Cocklebur": 98}
    ]},
    {"tested_on": "goosegrass (Eleusine indica)", "experiment": "Test B pre-/postemergence plant response", "assay_type": "in vivo", "conditions": "31 g ai/ha, postemergence; scale 0 to 100, 0 is no effect, 100 is complete control", "method_in_brief": "as §1", "values": [
      {"compound": "CCCCn1c(-c2ccccc2)ncc(C(=O)C2=C(O)CCCC2=O)c1=O", "note": "[Compound 86]", "Plant response rating, Goosegrass": 70}
    ]},
    {"tested_on": "goosegrass (Eleusine indica)", "experiment": "Test B pre-/postemergence plant response", "assay_type": "in vivo", "conditions": "62 g ai/ha, postemergence; 0 is no effect, 100 is complete control; 13 to 15 days", "method_in_brief": "as §1", "values": [
      {"compound": "CCCCn1c(-c2ccccc2)ncc(C(=O)C2=C(O)CCCC2=O)c1=O", "note": "[Compound 86]", "Goosegrass plant response rating (0 to 100 scale)": 75}
    ]},
    {"tested_on": "goosegrass (Eleusine indica)", "experiment": "Test B pre-/postemergence plant response", "assay_type": "in vivo", "conditions": "Postemergence, 250 g ai/ha; scale 0 to 100 (0 no effect, 100 complete control)", "method_in_brief": "as §1", "values": [
      {"compound": "CCCCn1c(-c2ccccc2)ncc(C(=O)C2=C(O)CCCC2=O)c1=O", "note": "[Compound 86]", "Plant response rating, Goosegrass": 95}
    ]},
    {"tested_on": "johnsongrass (Sorghum halepense)", "experiment": "Test B pre-/postemergence plant response", "assay_type": "in vivo", "conditions": "31 g ai/ha, postemergence; scale 0 to 100, 0 is no effect, 100 is complete control", "method_in_brief": "as §1", "values": [
      {"compound": "CCCCn1c(-c2ccccc2)ncc(C(=O)C2=C(O)CCCC2=O)c1=O", "note": "[Compound 86]", "Plant response rating, Johnsongrass": 95}
    ]},
    {"tested_on": "johnsongrass (Sorghum halepense)", "experiment": "Test B pre-/postemergence plant response", "assay_type": "in vivo", "conditions": "62 g ai/ha, postemergence; 0 is no effect, 100 is complete control; 13 to 15 days", "method_in_brief": "as §1", "values": [
      {"compound": "CCCCn1c(-c2ccccc2)ncc(C(=O)C2=C(O)CCCC2=O)c1=O", "note": "[Compound 86]", "Johnsongrass plant response rating (0 to 100 scale)": 98}
    ]},
    {"tested_on": "johnsongrass (Sorghum halepense)", "experiment": "Test B pre-/postemergence plant response", "assay_type": "in vivo", "conditions": "Postemergence, 250 g ai/ha; scale 0 to 100 (0 no effect, 100 complete control)", "method_in_brief": "as §1", "values": [
      {"compound": "CCCCn1c(-c2ccccc2)ncc(C(=O)C2=C(O)CCCC2=O)c1=O", "note": "[Compound 86]", "Plant response rating, Johnsongrass": 100}
    ]},
    {"tested_on": "kochia (Kochia scoparia)", "experiment": "Test B pre-/postemergence plant response", "assay_type": "in vivo", "conditions": "31 g ai/ha, postemergence; scale 0 to 100, 0 is no effect, 100 is complete control", "method_in_brief": "as §1", "values": [
      {"compound": "CCCCn1c(-c2ccccc2)ncc(C(=O)C2=C(O)CCCC2=O)c1=O", "note": "[Compound 86]", "Plant response rating, Kochia": 75}
    ]},
    {"tested_on": "kochia (Kochia scoparia)", "experiment": "Test B pre-/postemergence plant response", "assay_type": "in vivo", "conditions": "62 g ai/ha, postemergence; 0 is no effect, 100 is complete control; 13 to 15 days", "method_in_brief": "as §1", "values": [
      {"compound": "CCCCn1c(-c2ccccc2)ncc(C(=O)C2=C(O)CCCC2=O)c1=O", "note": "[Compound 86]", "Kochia plant response rating (0 to 100 scale)": 85}
    ]},
    {"tested_on": "kochia (Kochia scoparia)", "experiment": "Test B pre-/postemergence plant response", "assay_type": "in vivo", "conditions": "Postemergence, 250 g ai/ha; scale 0 to 100 (0 no effect, 100 complete control)", "method_in_brief": "as §1", "values": [
      {"compound": "CCCCn1c(-c2ccccc2)ncc(C(=O)C2=C(O)CCCC2=O)c1=O", "note": "[Compound 86]", "Plant response rating, Kochia": 98}
    ]},
    {"tested_on": "pigweed (Amaranthus retroflexus)", "experiment": "Test B pre-/postemergence plant response", "assay_type": "in vivo", "conditions": "31 g ai/ha, postemergence; scale 0 to 100, 0 is no effect, 100 is complete control", "method_in_brief": "as §1", "values": [
      {"compound": "CCCCn1c(-c2ccccc2)ncc(C(=O)C2=C(O)CCCC2=O)c1=O", "note": "[Compound 86]", "Plant response rating, Pigweed": 98}
    ]},
    {"tested_on": "pigweed (Amaranthus retroflexus)", "experiment": "Test B pre-/postemergence plant response", "assay_type": "in vivo", "conditions": "62 g ai/ha, postemergence; 0 is no effect, 100 is complete control; 13 to 15 days", "method_in_brief": "as §1", "values": [
      {"compound": "CCCCn1c(-c2ccccc2)ncc(C(=O)C2=C(O)CCCC2=O)c1=O", "note": "[Compound 86]", "Pigweed plant response rating (0 to 100 scale)": 100}
    ]},
    {"tested_on": "pigweed (Amaranthus retroflexus)", "experiment": "Test B pre-/postemergence plant response", "assay_type": "in vivo", "conditions": "Postemergence, 250 g ai/ha; scale 0 to 100 (0 no effect, 100 complete control)", "method_in_brief": "as §1", "values": [
      {"compound": "CCCCn1c(-c2ccccc2)ncc(C(=O)C2=C(O)CCCC2=O)c1=O", "note": "[Compound 86]", "Plant response rating, Pigweed": 100}
    ]},
    {"tested_on": "ragweed (common ragweed, Ambrosia elatior)", "experiment": "Test B pre-/postemergence plant response", "assay_type": "in vivo", "conditions": "31 g ai/ha, postemergence; scale 0 to 100, 0 is no effect, 100 is complete control", "method_in_brief": "as §1", "values": [
      {"compound": "CCCCn1c(-c2ccccc2)ncc(C(=O)C2=C(O)CCCC2=O)c1=O", "note": "[Compound 86]", "Plant response rating, Ragweed": 80}
    ]},
    {"tested_on": "ragweed (common ragweed, Ambrosia elatior)", "experiment": "Test B pre-/postemergence plant response", "assay_type": "in vivo", "conditions": "62 g ai/ha, postemergence; 0 is no effect, 100 is complete control; 13 to 15 days", "method_in_brief": "as §1", "values": [
      {"compound": "CCCCn1c(-c2ccccc2)ncc(C(=O)C2=C(O)CCCC2=O)c1=O", "note": "[Compound 86]", "Ragweed plant response rating (0 to 100 scale)": 90}
    ]},
    {"tested_on": "ragweed (common ragweed, Ambrosia elatior)", "experiment": "Test B pre-/postemergence plant response", "assay_type": "in vivo", "conditions": "Postemergence, 250 g ai/ha; scale 0 to 100 (0 no effect, 100 complete control)", "method_in_brief": "as §1", "values": [
      {"compound": "CCCCn1c(-c2ccccc2)ncc(C(=O)C2=C(O)CCCC2=O)c1=O", "note": "[Compound 86]", "Plant response rating, Ragweed": 98}
    ]},
    {"tested_on": "soybean (Glycine max)", "experiment": "Test B pre-/postemergence plant response", "assay_type": "in vivo", "conditions": "31 g ai/ha, postemergence; scale 0 to 100, 0 is no effect, 100 is complete control", "method_in_brief": "as §1", "values": [
      {"compound": "CCCCn1c(-c2ccccc2)ncc(C(=O)C2=C(O)CCCC2=O)c1=O", "note": "[Compound 86]", "Plant response rating, Soybean": 80}
    ]},
    {"tested_on": "soybean (Glycine max)", "experiment": "Test B pre-/postemergence plant response", "assay_type": "in vivo", "conditions": "62 g ai/ha, postemergence; 0 is no effect, 100 is complete control; 13 to 15 days", "method_in_brief": "as §1", "values": [
      {"compound": "CCCCn1c(-c2ccccc2)ncc(C(=O)C2=C(O)CCCC2=O)c1=O", "note": "[Compound 86]", "Soybean plant response rating (0 to 100 scale)": 95}
    ]}
  ]
}
